Assays:
delF508-CFTR = target: T1, delF508-CFTR (Homo sapiens, UniProt P13569, DEL508-508); assay: delF508-CFTR functional activity in primary human bronchial epithelial cells (HBECs), Multi-Transepithelial Clamp Circuit (MTECC-24) assay, equivalent short circuit current; format: cell-based; conditions: primary CF HBECs; for MTECC24 CFHBEC-Amax %: relative to reference combination 2 μM 3-(6-(1-(2,2-difluorobenzo[d][1,3]dioxol-5-yl)cyclopropane-1-carboxamido)-3-methylpyridin-2-yl)benzoic acid (24 h) + 0.5 μM N-(2,4-di-tert-butyl-5-hydroxyphenyl)-4-oxo-1,4-dihydroquinoline-3-carboxamide; for EC50: test compound added 24 h before assay, potentiator (S)-3-amino-6-methoxy-N-(3,3,3-trifluoro-2-hydroxy-2-methylpropyl)-5-(trifluoromethyl)picolinamide present at assay, mean of at least two replicates, read-out: MTECC24 CFHBEC-EC50
T1 construct: functional activity of the CFTR channel (Chloride ion transport) in patient derived primary human bronchial epithelial cells; host or cells: patient-derived primary human bronchial epithelial cells (HBECs), delF508-CFTR
T1 sequence (P13569 with tags, fused parts or gaps DEL508-508): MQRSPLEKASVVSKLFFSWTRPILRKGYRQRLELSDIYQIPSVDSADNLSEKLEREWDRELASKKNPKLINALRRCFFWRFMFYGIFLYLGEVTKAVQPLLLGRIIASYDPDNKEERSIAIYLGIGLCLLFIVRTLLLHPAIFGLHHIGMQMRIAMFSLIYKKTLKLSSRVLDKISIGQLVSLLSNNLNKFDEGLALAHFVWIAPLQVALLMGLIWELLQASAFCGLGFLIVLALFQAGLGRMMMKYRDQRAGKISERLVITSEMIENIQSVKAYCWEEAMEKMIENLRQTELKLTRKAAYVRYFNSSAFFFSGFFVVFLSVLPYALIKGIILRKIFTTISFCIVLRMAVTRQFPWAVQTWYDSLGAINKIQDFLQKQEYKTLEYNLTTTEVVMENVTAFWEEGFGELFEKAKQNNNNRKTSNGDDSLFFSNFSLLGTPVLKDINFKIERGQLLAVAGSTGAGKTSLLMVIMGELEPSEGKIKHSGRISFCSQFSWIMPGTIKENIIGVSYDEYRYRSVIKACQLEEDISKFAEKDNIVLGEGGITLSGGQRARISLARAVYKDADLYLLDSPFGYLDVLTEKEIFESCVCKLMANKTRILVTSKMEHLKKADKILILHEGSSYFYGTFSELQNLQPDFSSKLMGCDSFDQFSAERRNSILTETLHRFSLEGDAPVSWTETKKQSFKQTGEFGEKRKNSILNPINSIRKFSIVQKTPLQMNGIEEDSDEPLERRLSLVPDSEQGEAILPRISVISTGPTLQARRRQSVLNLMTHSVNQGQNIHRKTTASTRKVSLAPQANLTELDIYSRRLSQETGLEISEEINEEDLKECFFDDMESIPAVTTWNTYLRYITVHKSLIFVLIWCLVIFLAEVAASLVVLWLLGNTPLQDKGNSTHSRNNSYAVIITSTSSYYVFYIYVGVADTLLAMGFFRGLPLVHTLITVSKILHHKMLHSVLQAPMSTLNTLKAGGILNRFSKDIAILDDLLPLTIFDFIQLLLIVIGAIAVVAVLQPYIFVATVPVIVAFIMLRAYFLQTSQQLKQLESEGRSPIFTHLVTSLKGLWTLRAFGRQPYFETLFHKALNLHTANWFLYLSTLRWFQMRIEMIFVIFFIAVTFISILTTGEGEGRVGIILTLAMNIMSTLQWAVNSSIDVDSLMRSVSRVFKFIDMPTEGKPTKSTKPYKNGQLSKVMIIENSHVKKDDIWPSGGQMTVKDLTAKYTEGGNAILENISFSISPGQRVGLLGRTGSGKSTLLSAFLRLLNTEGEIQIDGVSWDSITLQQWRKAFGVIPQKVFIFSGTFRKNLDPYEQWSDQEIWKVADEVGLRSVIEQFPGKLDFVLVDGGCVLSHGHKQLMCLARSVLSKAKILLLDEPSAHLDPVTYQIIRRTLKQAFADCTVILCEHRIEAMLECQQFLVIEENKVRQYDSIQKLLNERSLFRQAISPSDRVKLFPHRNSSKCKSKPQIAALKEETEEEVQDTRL
Summary of the method: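 Patient-derived delF508 HBECs, grown at air-liquid interface about two weeks, were corrected with compound basolaterally for 24 h. Compound was then re-added apically and basolaterally in HEPES pH7.4 assay medium, with sequential modulators including forskolin and the picolinamide potentiator. Ieq was recorded, normalised to 0.1% DMSO wells, and EC50 fitted from 10-point curves.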

delF508-CFTR-HRP = target: T2, delF508-CFTR-HRP (Homo sapiens, UniProt P13569, DEL508-508); assay: Measurement of delF508-CFTR-HRP surface expression in CFBE41o- cells (HRP luminescence); format: cell-based; conditions: for Emax: CFBE41o-, read-out: DelF508-CFTR-HRP Amax %; for EC50: mean of at least two replicates;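 on DelF508-CFTR-HRP Amax %: percent efficacy relative to a reference CFTR corrector compound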
T2 construct: expressed in transfected cells
T2 sequence (P13569 with tags, fused parts or gaps DEL508-508): as above
Summary of the method: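 Stably transfected CFBE41o- cells carrying HRP in the fourth extracellular loop of delF508-CFTR, induced with 500 ng/mL doxycycline for 48 h, then compound-treated 24 h at 37° C (10-point, 3-fold, top 10 μM). Surface HRP detected by luminescent substrate; EC50 from logistic fit, triplicates, normalized to lowest-concentration median.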

`Cc1ccc(OC2Cc3ccccc3C2)c(OC2(C(=O)NS(=O)(=O)c3cccc(N4CC[C@H](O)C4)n3)CC2)c1` [Example 6-10, (S)-1-(2-((2,3-dihydro-1H-inden-2-yl)oxy)-5-methylphenoxy)-N-((6-(3-hydroxypyrrolidin-1-yl)pyridin-2-yl)sulfonyl)cyclopropanecarboxamide] was tested, and the “MTECC24 CFHBEC-Amax %” value (delF508-CFTR) was 79.2%, the EC50 (delF508-CFTR) was 1440 nM and the Emax (delF508-CFTR-HRP) was 350%. The EC50 (delF508-CFTR-HRP) was 2670 nM.

For `Cc1ccc([C@H]2CC[C@@H](F)CC2)c(OC2(C(=O)NS(=O)(=O)c3cccc(N4CC(C)(O)C4)n3)CC2)c1` (single isomer, unassigned) [Example 4-23, 1-(2-(Cis-4-fluorocyclohexyl)-5-methylphenoxy)-N-((6-(3-hydroxy-3-methylazetidin-1-yl)pyridin-2-yl)sulfonyl)cyclopropane-1-carboxamide], the “MTECC24 CFHBEC-Amax %” value (delF508-CFTR) was 138%, the EC50 (delF508-CFTR) was 167 nM and the Emax (delF508-CFTR-HRP) was 292%. It also gave an EC50 (delF508-CFTR-HRP) of 4160 nM.

`Cc1ccc(C2CCCCC2)c(OC2(C(=O)NS(=O)(=O)c3cccc(N4CC(O)C4)n3)CC2)c1` [Example 2-1, 1-(2-Cyclohexyl-5-methylphenoxy)-N-((6-(3-hydroxyazetidin-1-yl)pyridin-2-yl)sulfonyl)cyclopropanecarboxamide] was tested, and the “MTECC24 CFHBEC-Amax %” value (delF508-CFTR) was 97%, the EC50 (delF508-CFTR) was 5 nM and the Emax (delF508-CFTR-HRP) was 668%. For the same compound, the EC50 (delF508-CFTR-HRP) was 2360 nM.

With `Cc1ccc(-c2cccc(C(F)(F)F)c2)c(OC2(C(=O)NS(=O)(=O)c3cccc(N4CCC(N)(C(F)(F)F)CC4)n3)CC2)c1` [Example 5-16, N-((6-(4-Amino-4-(trifluoromethyl)piperidin-1-yl)pyridin-2-yl)sulfonyl)-1-((4-methyl-3′-(trifluoromethyl)-[1,1′-biphenyl]-2-yl)oxy)cyclopropane-1-carboxamide] the “MTECC24 CFHBEC-Amax %” value (delF508-CFTR) was 79%, the EC50 (delF508-CFTR) was 7 nM and the Emax (delF508-CFTR-HRP) was 294%. It also gave an EC50 (delF508-CFTR-HRP) of 420 nM.

In the case of `Cc1ccc(-c2ccccc2C(F)(F)F)c(OC2(C(=O)NS(=O)(=O)c3cccc(N4CC[C@H](O)C4)n3)CC2)c1` [Example 5-14, (S)—N-((6-(3-Hydroxypyrrolidin-1-yl)pyridin-2-yl)sulfonyl)-1-((4-methyl-2′-(trifluoromethyl)-[1,1′-biphenyl]-2-yl)oxy)cyclopropane-1-carboxamide], the “MTECC24 CFHBEC-Amax %” value (delF508-CFTR) is reported as 43%, the EC50 (delF508-CFTR) is reported as 50 nM and the Emax (delF508-CFTR-HRP) is reported as 196%. The EC50 (delF508-CFTR-HRP) was 2150 nM.

`Cc1ccc(C2CCC(C)(C)OC2)c(OC2(C(=O)NS(=O)(=O)c3cccc(N4CCC(O)(c5ccc(Cl)cc5)CC4)n3)CC2)c1` (single isomer, unassigned) [Example 11-1-1, N-((6-(4-(4-chlorophenyl)-4-hydroxypiperidin-1-yl)pyridin-2-yl)sulfonyl)-1-(2-(6,6-dimethyltetrahydro-2H-pyran-3-yl)-5-methylphenoxy)cyclopropane-1-carboxamide] was tested, and the “MTECC24 CFHBEC-Amax %” value (delF508-CFTR) was 148.8%, the EC50 (delF508-CFTR) was 394 nM and the “DelF508-CFTR-HRP Amax %” value (delF508-CFTR-HRP) was 920.6%. The EC50 (delF508-CFTR-HRP) was 920 nM.

For `Cc1ccc(C2CCCCC2)c(OC2(C(=O)NS(=O)(=O)c3cccc(N4CCC(CO)(NC(=O)OC(C)(C)C)CC4)n3)CC2)c1` [Example 2-22, Tert-butyl (1-(6-(N-(1-(2-cyclohexyl-5-methylphenoxy)cyclopropanecarbonyl)sulfamoyl)pyridin-2-yl)-4-(hydroxymethyl)piperidin-4-yl)carbamates], the “MTECC24 CFHBEC-Amax %” value (delF508-CFTR) was 90%, the EC50 (delF508-CFTR) was 17 nM and the Emax (delF508-CFTR-HRP) was 674%. For the same compound, the EC50 (delF508-CFTR-HRP) was 2240 nM.

In the case of `Cc1ccc(C2CCCCC2)c(OC2(C(=O)NS(=O)(=O)c3cccc(N4CCC(C)(O)CC4)n3)CC2)c1` [Example 2-49, 1-(2-Cyclohexyl-5-methylphenoxy)-N-((6-(4-hydroxy-4-methylpiperidin-1-yl)pyridin-2-yl)sulfonyl)cyclopropane-1-carboxamide], the “MTECC24 CFHBEC-Amax %” value (delF508-CFTR) is reported as 102%, the EC50 (delF508-CFTR) is reported as 5 nM and the Emax (delF508-CFTR-HRP) is reported as 391%. For the same compound, the EC50 (delF508-CFTR-HRP) was 1050 nM.

For `Cc1ccc(C2CCCCC2)c(OC2(C(=O)NS(=O)(=O)c3cccc(N4CCOC[C@@H]4C)n3)CC2)c1` [Example 2-2, (S)-1-(2-Cyclohexyl-5-methylphenoxy)-N-((6-(3-methylmorpholino)pyridin-2-yl)sulfonyl)cyclopropanecarboxamide], the “MTECC24 CFHBEC-Amax %” value (delF508-CFTR) was 59%, the EC50 (delF508-CFTR) was 2 nM and the Emax (delF508-CFTR-HRP) was 561%. The EC50 (delF508-CFTR-HRP) was 1330 nM.

For `Cc1ccc(C2CCCCC2)c(OC2(C(=O)NS(=O)(=O)c3cccc(N4CC5(CN(C(=O)OC(C)(C)C)C5)C4)n3)CC2)c1` [Example 2-29, Tert-butyl 6-(6-(N-(1-(2-cyclohexyl-5-methylphenoxy)cyclopropanecarbonyl)sulfamoyl)pyridin-2-yl)-2,6-diazaspiro[3.3]heptane-2-carboxylate], the “MTECC24 CFHBEC-Amax %” value (delF508-CFTR) was 76%, the EC50 (delF508-CFTR) was 63 nM and the Emax (delF508-CFTR-HRP) was 626%. For the same compound, the EC50 (delF508-CFTR-HRP) was 870 nM.

`Cc1ccc(C2CCCCC2)c(OC2(C(=O)NS(=O)(=O)c3cccc(NCC(C)O)n3)CC2)c1` (stereo not drawn) [Example 2-45, 1-(2-Cyclohexyl-5-methylphenoxy)-N-((6-((2-hydroxypropyl)amino)pyridin-2-yl)sulfonyl)cyclopropane-1-carboxamide] was tested, and the “MTECC24 CFHBEC-Amax %” value (delF508-CFTR) was 95%, the EC50 (delF508-CFTR) was 6 nM and the Emax (delF508-CFTR-HRP) was 816%. It also gave an EC50 (delF508-CFTR-HRP) of 2230 nM.

In the case of `Cc1ccc(C2CCCCC2)c(OC2(C(=O)NS(=O)(=O)c3cccc(N4CCNCC4)n3)CC2)c1` [Example 2-31, 1-(2-Cyclohexyl-5-methylphenoxy)-N-((6-(piperazin-1-yl)pyridin-2-yl)sulfonyl)cyclopropanecarboxamide], the “MTECC24 CFHBEC-Amax %” value (delF508-CFTR) is reported as 89%, the EC50 (delF508-CFTR) is reported as 421 nM and the Emax (delF508-CFTR-HRP) is reported as 96%. The EC50 (delF508-CFTR-HRP) was 3250 nM.

In the case of `Cc1ccc(C2CCCC2)c(OC2(C(=O)NS(=O)(=O)c3cccc(NC[C@H](C)O)n3)CC2)c1` [Example 4-5, (S)-1-(2-Cyclopentyl-5-methylphenoxy)-N-((6-((2-hydroxypropyl)amino)pyridin-2-yl)sulfonyl)cyclopropane-1-carboxamide], the “MTECC24 CFHBEC-Amax %” value (delF508-CFTR) is reported as 82%, the EC50 (delF508-CFTR) is reported as 10 nM and the Emax (delF508-CFTR-HRP) is reported as 590%. The EC50 (delF508-CFTR-HRP) was 2810 nM.

`Cc1ccc(C2CCCCC2)c(OC2(C(=O)NS(=O)(=O)c3cccc(N4CCC(C)(NC(=O)OC(C)(C)C)C4)n3)CC2)c1` (stereo not drawn) [Example 2-24, Tert-butyl (1-(6-(N-(1-(2-cyclohexyl-5-methylphenoxy)cyclopropanecarbonyl)sulfamoyl)pyridin-2-yl)-3-methylpyrrollidin-3-yl)carbamate] was tested, and the “MTECC24 CFHBEC-Amax %” value (delF508-CFTR) was 62%, the EC50 (delF508-CFTR) was 5 nM and the Emax (delF508-CFTR-HRP) was 591%. For the same compound, the EC50 (delF508-CFTR-HRP) was 1270 nM.

For `NC1(C(F)(F)F)CCN(c2cccc(S(=O)(=O)NC(=O)C3(Oc4cc(Cl)ccc4C4CC5(CCC5)C4)CC3)n2)CC1` [Example 7-17, N-((6-(4-amino-4-(trifluoromethyl)piperidin-1-yl)pyridin-2-yl)sulfonyl)-1-(5-chloro-2-(spiro[3.3]heptan-2-yl)phenoxy)cyclopropane-1-carboxamide], the “MTECC24 CFHBEC-Amax %” value (delF508-CFTR) was 128.4%, the EC50 (delF508-CFTR) was 57 nM and the Emax (delF508-CFTR-HRP) was 377%. For the same compound, the EC50 (delF508-CFTR-HRP) was 420 nM.

For `COC(=O)C1CCN(c2cccc(S(=O)(=O)NC(=O)C3(Oc4cc(C)ccc4C4CCCCC4)CC3)n2)CC1` [Example 2-4, Methyl 1-(6-(N-(1-(2-cyclohexyl-5-methylphenoxy)cyclopropane-1-carbonyl)sulfamoyl)pyridin-2-yl)piperidine-4-carboxylate], the “MTECC24 CFHBEC-Amax %” value (delF508-CFTR) was 91%, the EC50 (delF508-CFTR) was 10 nM and the Emax (delF508-CFTR-HRP) was 808%. The EC50 (delF508-CFTR-HRP) was 1290 nM.

With `Cc1ccc(C2CCCCC2)c(OC2(C(=O)NS(=O)(=O)c3cccc(N(C)C)n3)CC2)c1` [Example 2-25, 1-(2-Cyclohexyl-5-methylphenoxy)-N-((6-(dimethylamino)pyridin-2-yl)sulfonyl)cyclopropanecarboxamide] the “MTECC24 CFHBEC-Amax %” value (delF508-CFTR) was 89%, the EC50 (delF508-CFTR) was 1 nM and the Emax (delF508-CFTR-HRP) was 661%. The EC50 (delF508-CFTR-HRP) was 1440 nM.

`Cc1ccc(C2CCCCC2)c(OC2(C(=O)NS(=O)(=O)c3cccc(N4CCC(C)(C(=O)O)CC4)n3)CC2)c1` [Example 2-5, 1-(6-(N-(1-(2-cyclohexyl-5-methylphenoxy)cyclopropanecarbonyl)sulfamoyl)pyridin-2-yl)-4-methylpiperidine-4-carboxylic acid] was tested, and the “MTECC24 CFHBEC-Amax %” value (delF508-CFTR) was 66%, the EC50 (delF508-CFTR) was 7 nM and the Emax (delF508-CFTR-HRP) was 213%. It also gave an EC50 (delF508-CFTR-HRP) of 3020 nM.

With `Cc1ccc(OCc2ccccc2)c(OC2(C(=O)NS(=O)(=O)c3cccc(N4CCO[C@@H](C)C4)n3)CC2)c1` [Example 6-1, (S)-1-(2-(Benzyloxy)-5-methylphenoxy)-N-((6-(2-methylmorpholino)pyridin-2-yl)sulfonyl)cyclopropanecarboxamide] the “MTECC24 CFHBEC-Amax %” value (delF508-CFTR) was 67%, the EC50 (delF508-CFTR) was 153 nM and the Emax (delF508-CFTR-HRP) was 230%. For the same compound, the EC50 (delF508-CFTR-HRP) was 3870 nM.

For `C[C@@H](CO)Nc1cccc(S(=O)(=O)NC(=O)C2(Oc3cc(F)ccc3C3CCC(F)(F)CC3)CC2)n1` [Example 3-2], the “MTECC24 CFHBEC-Amax %” value (delF508-CFTR) was 48%, the EC50 (delF508-CFTR) was 371 nM and the Emax (delF508-CFTR-HRP) was 172%. For the same compound, the EC50 (delF508-CFTR-HRP) was 4420 nM.

In the case of `O=C(NS(=O)(=O)c1cccc(N2CC(O)C2)n1)C1(Oc2cc(Cl)ccc2C2CCCCC2)CC1` [Example 2-57, 1-(5-Chloro-2-cyclohexylphenoxy)-N-((6-(3-hydroxyazetidin-1-yl)pyridin-2-yl)sulfonyl)cyclopropane-1-carboxamide], the “MTECC24 CFHBEC-Amax %” value (delF508-CFTR) is reported as 102%, the EC50 (delF508-CFTR) is reported as 12 nM and the Emax (delF508-CFTR-HRP) is reported as 328%. It also gave an EC50 (delF508-CFTR-HRP) of 3080 nM.

From patent US20220033407A1, “N-(pyridin-2-ylsulfonyl)cyclopropanecarboxamide Derivatives and their Use in the Treatment of Disease” (NOVARTIS AG, priority 2018, published 2022)
